Laboratory results published in ChEMBL document CHEMBL2331518, “Rapid microwave-enhanced synthesis of C5-alkynyl pyranonucleosides as novel cytotoxic antitumor agents” (Bioorg Med Chem Lett, 2013).
The source made the active and inactive calls. No cut-off for these calls is given here.

Experiments:
[1] = system: HeLa; test: Cytotoxicity against human HeLa cells after 72 hrs; type: functional, cell-based
[2] = system: L1210; test: Cytotoxicity against mouse L1210 cells after 48 hrs; type: functional, cell-based; details: L1210, 48 h
[3] = system: CCRF-CEM; test: Cytotoxicity against human CEM cells after 72 hrs; type: functional, cell-based
[4] = system: Human immunodeficiency virus 2; test: Antiviral activity against HIV2 ROD infected in human CEM cells assessed as reduction of virus-induced cytopathicity after 4 to 5 days; type: functional, organism-based; details: ISOLATE ROD, CCRF-CEM
[5] = system: Human immunodeficiency virus 1; test: Antiviral activity against HIV1 3B infected in human CEM cells assessed as reduction of virus-induced cytopathicity after 4 to 5 days; type: functional, organism-based; details: CCRF-CEM
[6] = system: Punta Toro virus; test: Antiviral activity against Punta Toro virus by cell based assay; type: functional, organism-based
[7] = system: Mammalian orthoreovirus 1; test: Antiviral activity against Reovirus-1 by cell based assay; type: functional, organism-based
[8] = system: Influenza B virus; test: Antiviral activity against Influenza B virus by cell based assay; type: functional, organism-based
[9] = system: Influenza A virus; test: Antiviral activity against Influenza A virus H3N2 by cell based assay; type: functional, organism-based
[10] = system: Sindbis virus; test: Antiviral activity against Sindbis virus by cell based assay; type: functional, organism-based
[11] = system: Influenza A virus; test: Antiviral activity against Influenza A virus H1N1 by cell based assay; type: functional, organism-based
[12] = system: Human respirovirus 3; test: Antiviral activity against Parainfluenza-3 virus by cell based assay; type: functional, organism-based
[13] = system: Coxsackievirus B4; test: Antiviral activity against Coxsackie virus B4 by cell based assay; type: functional, organism-based
[14] = system: Vesicular stomatitis virus; test: Antiviral activity against Vesicular stomatitis virus by cell based assay; type: functional, organism-based
[15] = system: Respiratory syncytial virus; test: Antiviral activity against Respiratory syncytial virus Long by cell based assay; type: functional, organism-based
[16] = system: Vaccinia virus; test: Antiviral activity against Vaccinia virus Lederle by cell based assay; type: functional, organism-based; details: Orthopoxvirus vaccinia
[17] = system: Human alphaherpesvirus 2; test: Antiviral activity against HSV-2 G by cell based assay; type: functional, organism-based; details: strain G
[18] = system: Human alphaherpesvirus 1; test: Antiviral activity against kinase-deficient acyclovir-resistant HSV-1 KOS by cell based assay; type: functional, organism-based
[19] = system: Human alphaherpesvirus 2; test: Antiviral activity against HSV-2 Lyons by cell based assay; type: functional, organism-based
[20] = system: Human alphaherpesvirus 1; test: Antiviral activity against HSV-1 KOS by cell based assay; type: functional, organism-based

| Structure (SMILES) | IC50 [1] | IC50 [2] | IC50 [3] | Activity [4] | Activity [5] | Activity [6] | Activity [7] | Activity [8] | Activity [9] | Activity [10] | Activity [11] | Activity [12] | Activity [13] | Activity [14] | Activity [15] | Activity [16] | Activity [17] | Activity [18] | Activity [19] | Activity [20] |
| --- | --- | --- | --- | --- | --- | --- | --- | --- | --- | --- | --- | --- | --- | --- | --- | --- | --- | --- | --- | --- |
| CCCCCC#Cc1cn([C@@H]2O[C@H](CO)[C@@H](O)[C@H](O)[C@H]2O)c(=O)nc1N | ≥ 250 µM | ≥ 250 µM | > 250 µM |  |  |  |  |  |  |  |  |  |  |  |  |  |  |  |  |  |
| CCCCCc1ccc(C#Cc2cn([C@@H]3O[C@H](CO)[C@@H](O)[C@H](O)[C@H]3O)c(=O)nc2O)cc1 | 31 µM | 70 µM | 81 µM |  |  |  |  |  |  |  |  |  |  |  |  |  |  |  |  |  |
| CC(=O)OC[C@H]1O[C@@H](n2cc(C#Cc3cccc[n+]3C)c(=O)[nH]c2=O)[C@H](OC(C)=O)[C@@H](OC(C)=O)[C@@H]1OC(C)=O | 232 µM | 203 µM | > 250 µM |  |  |  |  |  |  |  |  |  |  |  |  |  |  |  |  |  |
| C[n+]1cccc(C#Cc2cn([C@@H]3O[C@H](CO)[C@@H](O)[C@H](O)[C@H]3O)c(=O)[nH]c2=O)c1 | > 250 µM | > 250 µM | > 250 µM | inactive | inactive | inactive | inactive | inactive | inactive | inactive | inactive | inactive | inactive | inactive | inactive | inactive | inactive | inactive | inactive | inactive |
| CC(=O)OC[C@H]1O[C@@H](n2cc(C#Cc3ccc[n+](C)c3)c(=O)[nH]c2=O)[C@H](OC(C)=O)[C@@H](OC(C)=O)[C@@H]1OC(C)=O | > 250 µM | > 250 µM | > 250 µM |  |  |  |  |  |  |  |  |  |  |  |  |  |  |  |  |  |
| C#Cc1cn([C@@H]2O[C@H](CO)[C@@H](O)[C@H](O)[C@H]2O)c(=O)[nH]c1=O | 231 µM | 141 µM | > 250 µM |  |  |  |  |  |  |  |  |  |  |  |  |  |  |  |  |  |
| Nc1nc(=O)n([C@@H]2O[C@H](CO)[C@@H](O)[C@H](O)[C@H]2O)cc1C#Cc1ccccc1 | 201 µM | ≥ 250 µM | > 250 µM |  |  |  |  |  |  |  |  |  |  |  |  |  |  |  |  |  |
| CC(=O)OC[C@H]1O[C@@H](n2cc(C#Cc3ccccn3)c(=O)[nH]c2=O)[C@H](OC(C)=O)[C@@H](OC(C)=O)[C@@H]1OC(C)=O | 90 µM | 115 µM | 139 µM |  |  |  |  |  |  |  |  |  |  |  |  |  |  |  |  |  |
| CCCc1cc2cn([C@@H]3O[C@H](CO)[C@@H](O)[C@H](O)[C@H]3O)c(=O)nc2o1 | 125 µM | 132 µM | 173 µM | inactive | inactive | inactive | inactive | inactive | inactive | inactive | inactive | inactive | inactive | inactive | inactive | inactive | inactive | inactive | inactive | inactive |
| O=c1nc(O)c(C#Cc2ccccc2)cn1[C@@H]1O[C@H](CO)[C@@H](O)[C@H](O)[C@H]1O | 5.4 µM | 6.2 µM | 5.2 µM | inactive | inactive | inactive | inactive | inactive | inactive | inactive | inactive | inactive | inactive | inactive | inactive | inactive | inactive | inactive | inactive | inactive |
| O=c1[nH]c(=O)n([C@@H]2O[C@H](CO)[C@@H](O)[C@H](O)[C@H]2O)cc1C#Cc1cccnc1 | > 250 µM | > 250 µM | > 250 µM | inactive | inactive | inactive | inactive | inactive | inactive | inactive | inactive | inactive | inactive | inactive | inactive | inactive | inactive | inactive | inactive | inactive |
| CC(C)(C)c1ccc(C#Cc2cn([C@@H]3O[C@H](CO)[C@@H](O)[C@H](O)[C@H]3O)c(=O)nc2O)cc1 | 37 µM | 185 µM | > 250 µM |  |  |  |  |  |  |  |  |  |  |  |  |  |  |  |  |  |
| O=c1[nH]c(=O)n([C@@H]2O[C@H](CO)[C@@H](O)[C@H](O)[C@H]2O)cc1CCc1ccccc1 | 43 µM | 300 µM | 244 µM |  |  |  |  |  |  |  |  |  |  |  |  |  |  |  |  |  |
| O=c1[nH]c(=O)n([C@@H]2O[C@H](CO)[C@@H](O)[C@H](O)[C@H]2O)cc1C#Cc1ccccn1 | 66 µM | 71 µM | 79 µM | inactive | inactive | inactive | inactive | inactive | inactive | inactive | inactive | inactive | inactive | inactive | inactive | inactive | inactive | inactive | inactive | inactive |
| C[n+]1ccccc1C#Cc1cn([C@@H]2O[C@H](CO)[C@@H](O)[C@H](O)[C@H]2O)c(=O)[nH]c1=O | 244 µM | 152 µM | > 250 µM | inactive | inactive | inactive | inactive | inactive | inactive | inactive | inactive | inactive | inactive | inactive | inactive | inactive | inactive | inactive | inactive | inactive |
| CC(C)(C)c1ccc(C#Cc2cn([C@@H]3O[C@H](CO)[C@@H](O)[C@H](O)[C@H]3O)c(=O)nc2N)cc1 | 140 µM | > 250 µM | > 250 µM |  |  |  |  |  |  |  |  |  |  |  |  |  |  |  |  |  |
| C#Cc1cn([C@@H]2O[C@H](CO)[C@@H](O)[C@H](O)[C@H]2O)c(=O)nc1N | ≥ 250 µM | ≥ 250 µM | > 250 µM |  |  |  |  |  |  |  |  |  |  |  |  |  |  |  |  |  |
| CCCCCc1ccc(C#Cc2cn([C@@H]3O[C@H](CO)[C@@H](O)[C@H](O)[C@H]3O)c(=O)nc2N)cc1 | 43 µM | 132 µM | 115 µM |  |  |  |  |  |  |  |  |  |  |  |  |  |  |  |  |  |
| CCCC#Cc1cn([C@@H]2O[C@H](CO)[C@@H](O)[C@H](O)[C@H]2O)c(=O)[nH]c1=O | 95 µM | 115 µM | 123 µM |  |  |  |  |  |  |  |  |  |  |  |  |  |  |  |  |  |
| CCCC#Cc1cn([C@@H]2O[C@H](CO)[C@@H](O)[C@H](O)[C@H]2O)c(=O)nc1N | 191 µM | ≥ 250 µM | > 250 µM |  |  |  |  |  |  |  |  |  |  |  |  |  |  |  |  |  |
| CCCCCc1cc2cn([C@@H]3O[C@H](CO)[C@@H](O)[C@H](O)[C@H]3O)c(=O)nc2o1 | > 250 µM | ≥ 250 µM | > 250 µM | inactive | inactive | inactive | inactive | inactive | inactive | inactive | inactive | inactive | inactive | inactive | inactive | inactive | inactive | inactive | inactive | inactive |
| CCCCCC#Cc1cn([C@@H]2O[C@H](CO)[C@@H](O)[C@H](O)[C@H]2O)c(=O)[nH]c1=O | 29 µM | 22 µM | 26 µM |  |  |  |  |  |  |  |  |  |  |  |  |  |  |  |  |  |
| CC(=O)OC[C@H]1O[C@@H](n2cc(C#Cc3cccnc3)c(=O)[nH]c2=O)[C@H](OC(C)=O)[C@@H](OC(C)=O)[C@@H]1OC(C)=O | > 250 µM | > 250 µM | 182 µM |  |  |  |  |  |  |  |  |  |  |  |  |  |  |  |  |  |
